Laboratory results taken from patent publication US7897588B2, “Agents and methods for enhancing bone formation” (The Regents of the University of California, priority 2003, dated 2011).

Columns and labels:
[1] = test system: M2-10B4 mouse marrow stromal cell line; assay: Alkaline phosphatase (ALP) activity assay in M2 cells; type: cell-based; details: for inhibition of oxysterol-induced alkaline phosphatase activity: 22R+20S, SC-560 10 μM, ACA 25 μM, AACOCF3 20 μM, PD98059 20 μM
Experimental: (§1) Cells: M2-10B4 mouse marrow stromal cell line obtained from American Type Culture Collection (ATCC, Rockville, Md., U.S.A.) was derived from bone marrow stromal cells of a (C57BL/6J×C3H/HeJ) F1 mouse, and support human and murine myelopoiesis in long-term cultures (as per ATCC) and have the ability to differentiate into osteoblastic and adipocytic cells. Unless specified, these cells were cultured in RPMI 1640 containing 10% heat-inactivated FBS, and supplemented with 1 mM sodium pyruvate, 100 U/ml penicillin, and 100 […] (all from Irvine Scientific).
Alkaline phosphatase activity assay: Colorimetric alkaline phosphatase (ALP) activity assay on whole cell extracts was performed as previously described.
Test 1: M2 cells at confluence were treated with control vehicle (C), or 10 μM oxysterols, in an osteogenic medium consisting of RPMI 1640 to which 10% fetal bovine serum (FBS), 50 μg/ml ascorbate and 3 mM beta-glycerophosphate (βGP) were added. After 3 days of incubation, alkaline phosphatase (ALP) activity was determined in cell homogenates by a colorimetric assay. […] FIG. 3A is a bar graph depicting the effect of various oxysterols on alkaline phosphatase activity in M2 cells.
M2 cells at confluence were treated in osteogenic medium with control vehicle (C) or a combination of 22R and 20S oxysterols, at the indicated concentrations. ALP activity was measured after 3 days as described above. […] FIG. 3B is a bar graph depicting the effect of a combination of oxysterols at various doses on alkaline phosphatase activity in M2 cells.
Test 2: M2 cells were grown in RPMI medium containing 10% fetal bovine serum (FBS). At confluence, the cells were treated in RPMI containing 5% FBS plus ascorbate at 50 μg/ml and β-glycerophosphate at 3 mM to induce osteoblastic differentiation. Adipogenic differentiation was induced by treating the cells in growth medium plus 10 ˜M troglitazone. A vehicle (C) or oxysterol treatment was applied to cells in a variety of doses (in μM): 20S-Hydroxycholesterol, 25-Hydroxycholesterol, 22R-Hydroxycholesterol; 22S-Hydroxycholesterol; 7-ketocholesterol. Cells were always treated at 90% confluence. After 4 days, alkaline phosphatase activity was determined in whole cell lysates and normalized to protein. Alternatively, MSC cultures were prepared and treated with oxysterols as described above. Cells were treated at 90% confluence with the combination of 22R-Hydroxycholesterol and 20S-Hydroxycholesterol, each at 5 uM, for 4 to 96 hours. The oxysterols where removed and fresh media without oxysterols was added for a total duration of 96 hours. Alkaline phosphatase activity was measured in whole cell extracts and normalized to protein.
M2 cells were treated at 90% confluence with vehicle (C), or oxysterols 20S-Hydroxycholesterol or 22S-Hydroxycholesterol at (0.5 μM) or (1 μM), in the absence or presence of cytochrome P450 inhibitor (SKF525A 10 μM (+)). MSC cultures were also treated at 90% confluence with vehicle (C), or 20S-Hydroxycholesterol (2 μM), in the absence or presence of cytochrome P450 […] (Benzylimidazole 50 μM) or SKF525A (10 μM). After 4 days, alkaline phosphatase activity was measured in whole cell extracts and normalized to protein.
Next, a combination of 22R and 20S oxysterols (RS, 2.5 μM each) were added in the presence or absence of SC as indicated. After 3 days, ALP activity was measured as described earlier. […] (B) M2 cells were treated as described in (A) and after 10 days matrix mineralization in cultures was quantified by a ^45Ca incorporation assay as described earlier.

M2 cells [2] = assay: Adipogenesis of troglitazone-treated M2 cells (oil Red O staining, adipocyte count); type: cell-based, mouse; details: M2 cells treated with Tro 10 μM, oxysterols 10 μM, 10 days
Experimental: (§2) Von Kossa and oil red O staining—Matrix mineralization in cell monolayers was detected by silver nitrate staining as previously described. Oil red O staining for detection of adipocytes was performed as previously described.
Test 1: M2 cells at 90% confluence were treated with vehicle (C), PPAR-γ activator, troglitazone 10 uM (Tro), alone or in combination with 10 μM oxysterols 20S-, 22R-, or 25S-hydroxycholesterol. After 8 days, adipocytes were identified by oil Red 0 staining and quantified by counting under a phase contrast microscope. FIG. 6A is a bar graph depicting the effect of oxysterols on reducing adipogenesis of MSC.
Test 2: (A) M2 cells at confluence were treated in RPMI containing 10% FBS with control vehicle or 10 μM troglitazone (Tro) in the absence or presence of 10 μM 20S or 22S oxysterols. After 10 days, adipocytes were visualized by oil Red O staining and quantified by light microscopy, shown in (B). Data from a representative of four experiments are shown, reported as the mean SD of quadruplicate determinations (p<0.001 for Tro vs. Tro+20S and Tro+22S). (C) M2 cells were treated at confluence with 10 μM Tro, alone or in combination with 10 μM 20S oxysterol. After 10 days, total RNA was isolated and analyzed for lipoprotein lipase (LPL), adipocyte P2 gene (aP2) or 18S rRNA expression by Northern blotting as described (Ref). Data from densitometric analysis of the Northern blot is shown in (D) as the average of duplicate samples, normalized to 18S rRNA.

[3] = test system: M2-10B4 mouse marrow stromal cell line; assay: Matrix mineralization in M2 cells (von Kossa staining, 45Ca incorporation assay); type: cell-based; details: 22R+20S, 10 days, SC-560 10 μM, ACA 25 μM, AACOCF3 20 μM, PD98059 20 μM
Experimental: as §1, §2
^45Ca incorporation assay—Matrix mineralization in cell monolayers was quantified using the ^45Ca incorporation assay as previously described.
M2 cells at confluence were treated in osteogenic medium with control vehicle or 5 μM oxysterols, alone or in combination as indicated. After 14 days, mineralization was identified by a von Kossa staining, which appears black. FIG. 3C is a depiction of von Kossa staining of M2 cells exposed to various conditions.
M2 cells were treated with control vehicle (C) or a combination of 22R and 20S oxysterols at increasing concentrations. After 14 days, matrix mineralization in cultures was quantified using a ^45Ca incorporation assay. […] FIG. 3D is a bar graph depicting the effect of a combination of oxysterols at various doses on calcium incorporation in M2 cells.
(§3) Next, a combination of 22R and 20S oxysterols (RS, 2.5 μM each) were added in the presence or absence of SC as indicated. After 3 days, ALP activity was measured as described earlier. […] (B) M2 cells were treated as described in (A) and after 10 days matrix mineralization in cultures was quantified by a ^45Ca incorporation assay as described earlier. Results from a representative of three experiments are shown, reported as the mean±SD of quadruplicate determinations, normalized to protein concentration. (C) M2 cells were pretreated with 20 μM SC for 4 hours, followed by the addition of RS in the presence or absence of SC as described above. After 8 days, total RNA was isolated and analyzed for osteocalcin (Osc) and 18S rRNA expression by Northern blotting as previously described. Data from densitometric analysis of the Northern blot is shown in (D) as the average of duplicate samples, normalized to 18S rRNA. (E) M2 cells at confluence were pretreated for 2 hours with control vehicle (C), or PLA2 inhibitors ACA (25 μM) and AACOCF3 (AAC, 20 μM), in osteogenic medium. Next, a combination of 22R and 20S oxysterols (RS, 2.5 μM) was added in the presence or absence of the inhibitors as indicated. After 3 days, ALP activity was measured as previously described. Data from a representative of three experiments are shown, reported as the mean±SD of quadruplicate determinations, normalized to protein concentration (p<0.01 for RS vs. RS+ACA and RS+AAC). (F) M2 cells were treated as described in (E). After 10 days, matrix minerliazation in cultures was quantified using a ^45Ca incorporation assay as previously described. Results from a representative of three experiments are shown, reported as the mean of quadruplicate determinations±SD, normalized to protein concentration (p<0.01 for RS vs. RS+ACA and RS+AAC).
(A) M2 cells at confluence were pretreated for four hours with RPMI containing 1% FBS, followed by treatment with control vehicle or 5 μM 20S oxysterol for 1, 4, or 8 hours. Next total cell extracts were prepared and analyzed for levels of native or phosphorylated ERK (pERK) using specific antibodies as previously described.

marrow stromal cells = assay: Osteogenic activity of marrow stromal cells (alkaline phosphatase, mineral formation), overall; type: cell-based, mouse; details: M2 cells; SC-560 at 1-20 μM; NS-398 at 20 μM
Experimental: as §3, with “Data from a representative of three experiments are shown, reported as the mean±SD of quadruplicate determinations, normalized to protein concentration (p<0.01 for RS vs. RS+ACA and RS+AAC). (F) M2 cells were treated as described in (E).” left out, “Results from a representative of three experiments are shown, reported as the mean of quadruplicate determinations±SD, normalized to protein concentration (p<0.01 for RS vs. RS+ACA and RS+AAC).” left out

M2 cells [4] = assay: Toxicity of COX inhibitors in M2 cell cultures; type: cell-based, mouse

SMILES: CC(C)CCC[C@@H](C)[C@H]1CC[C@H]2[C@@H]3C(=O)C=C4C[C@@H](O)CC[C@]4(C)[C@H]3CC[C@]12C [7K, 7-ketocholesterol, reference compound]
- induction of alkaline phosphatase activity ([1]; osteogenic medium, 10 μM oxysterols, 3 days): did not induce
- inhibition of adipogenesis (M2 cells [2]): unable to inhibit

SMILES: CCCCC/C=C\C/C=C\C/C=C\C/C=C\CCCC(=O)C(F)(F)F [AACOCF3]
- inhibition of oxysterol-induced alkaline phosphatase activity [1]: inhibited
- inhibition of oxysterol-induced mineralization [3]: inhibited

SMILES: CCCCCc1ccc(/C=C/C(=O)Nc2ccccc2C(=O)O)cc1 [ACA]
- inhibition of oxysterol-induced alkaline phosphatase activity [1]: inhibited
- inhibition of oxysterol-induced mineralization [3]: inhibited

SMILES: CS(=O)(=O)Nc1ccc([N+](=O)[O-])cc1OC1CCCCC1 [NS-398]
- inhibition of the osteogenic effects of oxysterol combinations (marrow stromal cells): negligible inhibitory effects
- highest non-toxic dose (M2 cells [4]): 20 µM

SMILES: COc1cccc(-c2cc(=O)c3ccccc3o2)c1N [PD98059]
- inhibition of oxysterol-induced mineralization [3]: inhibited

SMILES: CCCCC[C@H](O)/C=C/[C@H]1[C@H](O)CC(=O)[C@@H]1C/C=C\CCCC(=O)O [PGE2, prostaglandin E2]
- reversal of the effect of the COX-1 inhibitor on oxysterol-induced alkaline phosphatase activity ([1]; 1 μM PGE2 (data not shown)): reversed

SMILES: CCCC(C(=O)OCCN(CC)CC)(c1ccccc1)c1ccccc1.Cl [SKF525A]
- effect on the osteogenic effects of the oxysterols (alkaline phosphatase activity) ([1]; 20S or 22S 0.5 or 1 μM, SKF525A 10 μM, 4 days): potentiated

SMILES: CCCCC/C=C\C/C=C\C/C=C\C/C=C\CCCC(=O)O [arachidonic acid]
- reversal of the effect of the PLA2 inhibitors on oxysterol-induced alkaline phosphatase activity ([1]; 25 μM arachidonic acid (data not shown)): reversed
